Like-named read-outs stand apart in the source and are kept apart here. Marks after values point to notes of the source that are not given here. Ends that are not written are not given here.
Tests used:
[1] = tested on: osteoblastic cells and osteocytic cells; assay: Anti-apoptotic effects of estrogens on osteoblastic and osteocytic cells in vitro; format: cell-based
[2] = tested on: MLO-Y4 osteocytic cells; conditions: for effect on the prevention of MLO-Y4 cell apoptosis by sCT / effect on the anti-apoptotic effect of alendronate, IG-9402 and etidronate: inhibitor 30 min, 10^−6 M dexamethasone 6 h; for effect on the prevention of MLO-Y4 cell apoptosis by sCT: 5 ng/ml sCT 1 h; for effect on the anti-apoptotic effect of alendronate, IG-9402 and etidronate: 10^−7 M bisphosphonate 1 h; for percentage of cells stained with trypan blue (induction of apoptosis): MLO-Y4, 6 h, dexamethasone 10^−6 M, etoposide 50 μg/ml, TNF-α 1 nM; for inhibition of glucocorticoid-induced apoptosis: then dexamethasone 10^−6 M for 6 h
Experimental: The murine long bone-derived osteocytic cell line MLO-Y4 was provided by Dr. Lynda Bonewald (University of Texas Health Center at San Antonio, Tex.). Cells were cultured in phenol red-free αMEM supplemented with 5% FBS, 5% bovine calf serum, 100 U/ml penicillin and 100 μg/ml streptomycin. Cells were plated at 1-2×10^4 cells/cm^2 on collagen type I coated plates, as described previously (Kato, et al., 1997. J. Bone Miner. Res. 12:2014-2023). Murine calvaria cells were obtained from neonatal (3- to 6-day old) C57BL/6J mice by controlled digestion with collagenase, as previously described (Bellido, et al., 1997. Endocrinology 138:3666-3676). After isolation, cells were cultured in 10% FBS at 1-2×10^4 cells/cm^2 until 90-95% confluence. Subsequently, cells were harvested and frozen for later use. UMR-106-06 cells were cultured in phenol red-free MEM supplemented with 10% FBS, 1% non-essential aminoacids, 100 U/ml penicillin, and 100 μg/ml streptomycin (Sakagami, et al., Manolagas. 1993. J. Bone Miner. Res. 8:811-816).
Nonadherent cells were combined with adherent cells released from the culture dish using trypsin-EDTA, resuspended in medium containing serum, and collected by centrifugation. […] At least 100 cells per condition were counted.
(§1) MLO-Y4 osteocytic cells and calvaria osteoblastic cells were treated for 1 hour in the absence or presence of different BPs or sCT. Subsequently, dexamethasone, etoposide or TNF-α were added to obtain final concentrations of 10^−6 M, […], or 1 nM, respectively, and cells were incubated for additional 6 h. The effect of PD98059 (50 μM) or UO126 (1 μM) was evaluated by pretreating the cells with the inhibitors for 30 min before adding the BPs or sCT. In the experiment using the membrane permeable caspase inhibitor DEVD, cells were cultured for 1 hour with 50 nM DEVD-CHO and subsequently the pro-apoptotic agents were added to reach the final concentrations indicated above. […] At least 500 cells from fields selected by systematic random sampling were examined for each experimental condition. […] The TUNEL reaction was performed according to the manufacturer's instructions, using 0.15% CuSO4 for color enhancement. Negative controls were made by omitting the transferase from the reaction. Cells presenting brown nuclear staining were considered positive. More than 500 cells per condition were analyzed. Apoptosis of parental MLO-Y4 or calvaria cells was quantified by trypan blue staining (Jilka, et al., 1998. J. Bone Miner. Res. 13:793-802). Nonadherent cells were combined with adherent cells released from the culture dish using trypsin-EDTA, resuspended in medium containing serum, and collected by centrifugation. […] At least 100 cells per condition were counted.
MLO-Y4 cells were incubated for 1 h in vehicle or 50 nM DEVD-CHO. Subsequently, etoposide, TNF-α, or dexamethasone (Dex) were added at final concentrations of 50 μg/ml, 1 nM, or 10^−6 M, respectively, and cells were incubated for additional 6 h. Dead cells were enumerated by trypan blue uptake.
The percentage of dead cells was determined by trypan blue uptake, as in Methods and Materials. Bars represent the mean ±S.D. of three independent measurements.
Subsequently, etoposide, TNF-α, or dexarnethasone were added to reach final concentrations of 50 μg/ml, 1 nM, or 10^−6 M, respectively, and cells were cultured for 6 h, as in FIG. 1. The percentage of dead cells was determined by trypan blue uptake. Bars represent the mean ±S.D. of three independent measurements. Data were analyzed by two-way ANOVA.

[3] = tested on: osteoclast; conditions: cited from earlier work
[4] = tested on: osteoblastic cells derived from murine calvaria; assay: Apoptosis of osteoblastic cells derived from murine calvaria by trypan blue uptake; format: cell-based; conditions: 6 h; for induction of apoptosis of osteoblastic cells: etoposide 50 μg/ml, TNF-α, dexamethasone 10^−6 M
[5] = tested on: ERK1/2; assay: ERK1/2 phosphorylation in MLO-Y4 cells by Western blot; format: cell-based, murine; conditions: for effect on bisphosphonate-induced phosphorylation of ERKs: 50 μM PD98059 or 1 μM UO126 pretreatment, 10^−7 M bisphosphonate 2 min
Experimental: Monolayers were washed with cold 20 mM Tris-HCl (pH 7.5), 150 mM NaCl, 1 mM sodium orthovanadate and lysed in the lysis buffer mentioned above. Insoluble material was pelleted in a microcentrifuge at 14,000×rpm for 10 mn. […] Proteins (10 μg) were separated on 7.5% SDS-polyacrylamide gels and electrotransferred to a polyvinylidene difluoride membrane. Immunoblotting was performed using a mouse monoclonal antibody recognizing tyrosine phosphorylated ERK1/2, or a rabbit polyclonal antibody recognizing total ERK1/2, followed by incubation with either an antimouse or an antirabbit antibody conjugated with horseradish peroxidase. Blots were developed using Chemiluminescence according to the manufacturer's recommendations. Quantitation of the intensity of the bands in the autoradiograms was performed using a scanner (Microtek Lab., Redondo Beach, Calif.).

[6] = tested on: MLO-Y4 cells stably transduced with GFP; assay: Apoptosis by nuclear morphology of MLO-Y4 cells transduced with nuclear GFP; format: cell-based, murine; conditions: absence of dexamethasone; 10^−7 M
Experimental: Supernatants containing retroviral particles were collected 24-48 h after transfection, and used immediately to infect cell cultures. […] Subsequently, cells were exposed to the supernatants containing the viral particles once more before being trypsinized and plated at low density.
Cells presenting brown nuclear staining were considered positive. More than 500 cells per condition were analyzed. […] At least 100 cells per condition were counted.

[7] = tested on: osteocytic MLO-Y4 cells; assay: TUNEL reaction in MLO-Y4 cells; format: cell-based, murine; conditions: 10^−7 M alendronate 1 h and/or 10^−6 M dexamethasone 6 h
Experimental: as §1

[8] = tested on: osteocyte and osteoblast apoptosis in murine vertebral cancellous bone; assay: Murine model of glucocorticoid excess: TUNEL in vertebral bone sections and spinal BMD by DEXA; format: in vivo, Male Swiss Webster mice; conditions: prednisolone 2.1 mg/kg/day pellets, alendronate 0.75 mg/kg/d s.c., 56 days, mean ±SD
Description: To adjust for the difference in the metabolic rate in mice compared to that in humans, the daily glucocorticoid dose was divided by the metabolic weight, i.e. the weight in kg to the 3/4 power (Borchard, et al., 1992. Drug dosage in laboratory animals: a handbook. CRC Press, Inc., Boca Raton, Fla. 514 pp.; Kleiber, M. 1961. The fire of life: an introduction to animal energetics. New York). […] One control group received saline injections with placebo pellet implantation while another group received saline injections plus prednisolone pellets. Dual-energy X-ray absorptiometry (DEXA) was used to determine spinal bone mineral density (spinal BMD) at the end of the 56-day experiment, as previously described (Weinstein et al., 1998. J. Clin. Invest. 102:274-282).
Sections of vertebral bone (L1 to L5) were mounted on silane-coated glass slides (Scientific Device Lab, Inc., Des Plains, Ill.), deplasticized and incubated in 10 mM citrate buffer, pH 7.6, in a microwave oven at 98° C. for 5 minutes (Jilka, et al., 1998. J. Bone Miner. Res. 13:793-802). Slides were then incubated with 0.5% pepsin for 30 minutes at 37° C. Apoptotic cells were detected by the TUNEL reaction as described above using 0.15% CuSO4 for color enhancement of the diaminobenzidine in sections counterstained with 1% methyl green. The TUNEL reaction is noted within cell nuclei and the cells whose nuclei were clearly brown from the streptavidin-horse radish peroxidase conjugate instead of blue-green from the methyl green were interpreted as positive. Plastic-embledded sections of weaned rat mammary tissue were used as a positive control. Negative controls were made by omitting the transferase from the TUNEL reaction. Morphological changes characteristic of apoptosis were carefully examined to minimize ambiguity regarding the interpretation of results. […] Osteocytes were identified inside lacunae in mineralized bone (FIG. 11A). Osteoblasts were identified as cuboidal cells lining the osteoid-covered trabecular perimeter (FIG. 11B).

C[C@]12CC[C@@H]3c4ccc(O)cc4CC[C@H]3[C@@H]1CC[C@H]2O [17α-estradiol]
anti-apoptotic effects on osteoblastic cells in vitro and osteocytic cells [1]: potent anti-apoptotic effects

C[C@]12CC[C@@H]3c4ccc(O)cc4CC[C@H]3[C@@H]1CC[C@@H]2O [17β-estradiol]
anti-apoptotic effects on osteoblastic cells in vitro and osteocytic cells [1]: potent anti-apoptotic effects

C[C@]12CC[C@@H]3c4ccc(O)cc4C[C@@H](CCCCCCCCC[S+]([O-])CCCC(F)(F)C(F)(F)F)[C@H]3[C@@H]1CC[C@@H]2O (some centres unmarked) [ICI 182780]
effect on the anti-apoptotic effects of the estrogen compounds [1]: diminished

CN(C)CCC(N)(P(=O)(O)O)P(=O)(O)O [IG-9402, 1-amino-3-(N,N-dimethylamino)-propyliden-1,1-bisphosphonic acid]
prevention of apoptosis induced by etoposide or TNF-α ([2]; 10^−7 M, 1 h pretreatment, 6 h): prevented apoptosis
cell viability in the absence of pro-apoptotic stimuli ([2]; 10^−10 to 10^−3 M): did not affect cell viability
inhibitory effect on glucocorticoid-induced apoptosis at high concentrations ([2]; concentrations higher than 10^−6 M): persisted at high concentrations
antiresorptive activity / effect on osteoclast [3]: lacks anti-resorptive activity
potency ratio to affect the osteoclast, relative to pamidronate [3]: ⅙
antiresorptive activity / effect on osteoclast ([3]; listed as IG9204): do not block osteoclast activity at all
antiresorptive activity / effect on osteoclast ([3]; listed as IG9402): devoid of any antiresorptive activity
inhibition of apoptosis of osteoblastic cells induced by dexamethasone, TNF-α and etoposide ([4]; 10^−7 M, 1 h pretreatment): inhibited apoptosis
earliest time at which increased ERK phosphorylation was observed ([5]; 10^−7 M): 0.5 min
phosphorylation of ERK 1 and 2 ([5]; 10^−7 M): rapid and transient increase
proportion of cells exhibiting chromatin condensation and/or nuclear fragmentation versus untreated [6]: no significant differences

COc1cccc(-c2cc(=O)c3ccccc3o2)c1N [PD98059]
effect on the prevention of MLO-Y4 cell apoptosis by sCT [2]: abolished
effect on the anti-apoptotic effect of alendronate, IG-9402 and etidronate [2]: abrogated the anti-apoptotic effect
effect on bisphosphonate-induced phosphorylation of ERKs [5]: abolished

N#CC(=C(/N)Sc1ccccc1N)/C(C#N)=C(\N)Sc1ccccc1N [U0126]
effect on the prevention of MLO-Y4 cell apoptosis by sCT [2]: abolished
effect on the anti-apoptotic effect of alendronate, IG-9402 and etidronate [2]: abrogated the anti-apoptotic effect
effect on bisphosphonate-induced phosphorylation of ERKs [5]: abolished

C[C@@H]1C[C@H]2[C@@H]3CCC4=CC(=O)C=C[C@]4(C)[C@@]3(F)[C@@H](O)C[C@]2(C)[C@@]1(O)C(=O)CO [dexamethasone]
concentrations giving pro-apoptotic effects ([2]; MLO-Y4 cells): 10^−7-10^−5 M
% of TUNEL positive cells [7]: 11.87* %
Number of TUNEL positive cells [7]: 66
number of TUNEL negative cells [7]: 490

C[C@@]12CCC[C@H]1[C@@H]1CCc3cc(O)ccc3[C@H]1CC2 [estratriene-3-ol]
anti-apoptotic effects on osteoblastic cells in vitro and osteocytic cells [1]: potent anti-apoptotic effects

COc1cc([C@@H]2c3cc4c(cc3[C@@H](O[C@@H]3O[C@@H]5CO[C@@H](C)O[C@H]5[C@H](O)[C@H]3O)[C@H]3COC(=O)[C@H]23)OCO4)cc(OC)c1O [etoposide]
percentage of cells stained with trypan blue (induction of apoptosis) [2]: A similar effect was obtained
induction of apoptosis of osteoblastic cells [4]: induced apoptosis

CN(C)CCC(O)(P(=O)(O)O)P(=O)(O)O [olpadronate]
inhibition of glucocorticoid-induced apoptosis ([2]; 1 h pretreatment): Comparable responses
antiresorptive activity / effect on osteoclast [3]: effective inhibitor of the osteoclast and of bone resorption
proportion of cells exhibiting chromatin condensation and/or nuclear fragmentation versus untreated [6]: no significant differences

NCCC(O)(P(=O)(O)O)P(=O)(O)O [pamidronate]
inhibition of glucocorticoid-induced apoptosis ([2]; 1 h pretreatment): Comparable responses
proportion of cells exhibiting chromatin condensation and/or nuclear fragmentation versus untreated [6]: no significant differences

C[C@]12C=CC(=O)C=C1CC[C@@H]1[C@@H]2[C@@H](O)C[C@@]2(C)[C@H]1CC[C@]2(O)C(=O)CO [prednisolone]
Spinal BMD (% change) ([8]; DEXA): −12.48 ± 3.77 % change
Apoptotic osteoblasts (%) ([8]; vertebral cancellous bone): 19.79 ± 5.17 %
Apoptotic osteocytes (%) ([8]; vertebral cancellous bone): 2.37 ± 0.87%

Asp-Glu-Val-Asp-aldehide (DEVD-aldehyde) [DEVD-CHO]
prevention of the increase in cell membrane permeability detected by trypan blue ([2]; 50 nM DEVD-CHO 1 h before pro-apoptotic agents): prevented

B1: TNF-α: Recombinant murine TNF-α, an activator of death receptors (protein, UniProt P06804 80-235, looked up)
Tumor necrosis factor, …: LRSSSQNSSDKPVAHVVANHQVEEQLEWLSQRANALLANGMDLKDNQLVVPADGLYLVYSQVLFKGQGCPDYVLLTHTVSRFAISYQEKVNLLSAVKSPCPKDTPEGAELKPWYEPIYLGGVFQLEKGDQLSAEVNLPKYLDFAESGQVYFGVIAL
modifications: Tumor necrosis factor, soluble form
percentage of cells stained with trypan blue (induction of apoptosis) [2]: A similar effect was obtained
induction of apoptosis of osteoblastic cells [4]: induced apoptosis
